Measurements: PubChem BioAssay AID588607 (Sanford-Burnham Center for Chemical Genomics, 2011)
Active and inactive are the calls of the source.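 Rule for the calls: active = mean EC50 below 100 µM; inactive = the rest.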

Target: placental alkaline phosphatase (human)
Assay: placental alkaline phosphatase activators or inhibitors – biochemical, human PLAP, set 2, selectivity assay for mouse IAP activator project, SAR follow-up (AID 588607)
Conditions: purified PLAP, CDP-Star luminescence, 30 min

| EC50 | IC50 (inhibition of PLAP activity) | Structure (SMILES) |
| --- | --- | --- |
| > 100 µM (inactive) |  | CN(C)S(=O)(=O)c1cccc(NC(=S)NCCc2ccc(F)cc2)c1 |
| > 100 µM (inactive) |  | CC(CNC(=S)Nc1cccc(S(=O)(=O)N(C)C)c1)N1CCN(c2ccccc2)CC1 (stereo unspecified) |
| > 100 µM (inactive) |  | CCN(CC)CCCNC(=S)Nc1cccc(S(=O)(=O)N(C)C)c1 |
| > 100 µM (inactive) |  | O=c1c2ccccc2[nH]c(=S)n1-c1cccc(S(=O)(=O)N2CCCC2)c1 |
|  | 92 µM | CN(C)S(=O)(=O)c1cccc(NC(=S)NCCc2ccc(Br)cc2)c1 |
| > 100 µM (inactive) |  | CN(CCc1ccccn1)C(=S)Nc1cccc(S(=O)(=O)N(C)C)c1 |
|  | 35.9 µM | CN(C)S(=O)(=O)c1cccc(NC(=S)NCC(c2ccccc2)c2ccccc2)c1 |
|  | 30.1 µM | CCN(CC)S(=O)(=O)c1ccc(NC(=S)NCC(c2ccccc2)c2ccccc2)cc1 |
|  | 70.8 µM | COc1ccc(CCNC(=S)Nc2ccc(S(=O)(=O)N3CCCCC3)cc2)cc1 |
|  | 69.6 µM | COc1ccccc1CNC(=S)Nc1ccc(S(=O)(=O)N(C)C)cc1 |
|  | 19.5 µM | O=S(=O)(c1ccc(NC(=S)NCC(c2ccccc2)c2ccccc2)cc1)N1CCCC1 |
| > 100 µM (inactive) |  | CN(C)S(=O)(=O)c1cccc(NC(=S)NCCc2cccc(O)c2)c1 |
| > 100 µM (inactive) |  | CN(C)CCCNC(=S)Nc1cccc(S(=O)(=O)N(C)C)c1 |
|  | 57 µM | CN(C)S(=O)(=O)c1ccc(NC(=S)NCCc2cccc(Br)c2)cc1 |
|  | 40.8 µM | CN(C)S(=O)(=O)c1ccc(NC(=S)NCC(c2ccccc2)c2ccccc2)cc1 |
| > 100 µM (inactive) |  | Cc1ccc(S(=O)(=O)N(C)C)cc1NC(=S)NC(=O)C12CC3CC(CC(C3)C1)C2 |
|  | 42 µM | O=S(=O)(c1ccc(NC(=S)NCCC(c2ccccc2)c2ccccc2)cc1)N1CCCC1 |
| > 100 µM (inactive) |  | O=C(NC(=S)Nc1cc(S(=O)(=O)N2CCOCC2)ccc1N1CCOCC1)c1ccco1 |
|  | 85.7 µM | CN(C)S(=O)(=O)c1cccc(NC(=S)NC(C)(C)CC(C)(C)C)c1 |
| > 100 µM (inactive) |  | CCN(CC)c1ccc(C(=O)NC(=S)Nc2cc(S(=O)(=O)N3CCOCC3)ccc2-n2cncn2)cc1 |
|  | 71.8 µM | Cc1ccccc1CNC(=S)Nc1ccc(S(=O)(=O)N(C)C)cc1 |
|  | 43.6 µM | O=C(NC(=S)Nc1cc(S(=O)(=O)N2CCOCC2)ccc1O)c1ccco1 |

| EC50 | IC50 (inhibition of PLAP activity) | Structure (SMILES) |
| --- | --- | --- |
| > 100 µM (inactive) |  | CN(C)S(=O)(=O)c1ccc(NC(=S)NCCc2cccc(O)c2)cc1 |
| > 100 µM (inactive) |  | Cc1ccc(C)c(NC(=S)Nc2ccc(S(=O)(=O)N3CCCCC3)cc2)c1 |
| > 100 µM (inactive) |  | CN(C)S(=O)(=O)c1cccc(NC(=S)NCc2ccc(Cl)cc2)c1 |
|  | 31.9 µM | CC1CCN(S(=O)(=O)c2ccc(NC(=S)NCCC(c3ccccc3)c3ccccc3)cc2)CC1 |
| > 100 µM (inactive) |  | CN(C)S(=O)(=O)c1cccc(NC(=S)NCCc2cccc(F)c2)c1 |
| > 100 µM (inactive) |  | CCCCCCC(C)NC(=S)Nc1cc(S(=O)(=O)N(C)C)ccc1C (stereo unspecified) |
|  | 91 µM | COc1cccc(CNC(=S)Nc2ccc(S(=O)(=O)N(C)C)cc2)c1 |
|  | 22.1 µM | O=S(=O)(c1ccc(NC(=S)NC(c2ccccc2)c2ccccc2)cc1)N1CCCC1 |
|  | 78.6 µM | Cc1ccc(CNC(=S)Nc2ccc(S(=O)(=O)N(C)C)cc2)cc1 |
| > 100 µM (inactive) |  | CN(C)S(=O)(=O)c1cccc(NC(=S)NCCC(=O)N2CCCC2)c1 |
| > 100 µM (inactive) |  | CN(CCc1ccccc1)C(=S)Nc1cccc(S(=O)(=O)N(C)C)c1 |
|  | 16.6 µM | O=S(=O)(c1ccc(NC(=S)NC(c2ccccc2)c2ccccc2)cc1)N1CCCCC1 |
|  | 47.2 µM | CC1CCN(S(=O)(=O)c2ccc(NC(=S)NC(c3ccccc3)c3ccccc3)cc2)CC1 |
| > 100 µM (inactive) |  | Cc1ccc(S(=O)(=O)N(C)C)cc1NC(=S)NC1CCN(Cc2ccccc2)CC1 |
| > 100 µM (inactive) |  | CN(C)S(=O)(=O)c1ccc(NC(=S)NCCN2CCCC2)cc1 |
|  | 89.9 µM | CCOc1cc(CCNC(=S)Nc2ccc(S(=O)(=O)N(C)C)cc2)ccc1OC |
|  | 35 µM | CN(C)S(=O)(=O)c1ccc(NC(=S)NCCC(c2ccccc2)c2ccccc2)cc1 |
|  | 29 µM | CN(C)S(=O)(=O)c1ccc(NC(=S)NC(c2ccccc2)c2ccccc2)cc1 |
|  | 68.6 µM | COc1ccc(CNC(=S)Nc2ccc(S(=O)(=O)N3CCCCC3)cc2)cc1OC |
|  | 81.9 µM | COc1ccc(CCNC(=S)Nc2ccc(S(=O)(=O)N3CCCCC3)cc2)cc1OC |
| > 100 µM (inactive) |  | O=C(CCc1ccccc1)NC(=S)Nc1cccc(S(=O)(=O)N2CCCC2)c1 |
| > 100 µM (inactive) |  | CN(C)S(=O)(=O)c1cccc(NC(=S)NCCCN2CCCC2=O)c1 |

| EC50 | IC50 (inhibition of PLAP activity) | Structure (SMILES) |
| --- | --- | --- |
| > 100 µM (inactive) |  | CC1CC(NC(=S)Nc2cccc(S(=O)(=O)N(C)C)c2)CC(C)N1 (stereo unspecified) |
|  | 29.6 µM | O=S(=O)(c1ccc(NC(=S)NCC(c2ccccc2)c2ccccc2)cc1)N1CCCCC1 |
| > 100 µM (inactive) |  | CN(C)S(=O)(=O)c1ccc(NC(=S)NCc2ccc(Cl)cc2)cc1 |
| > 100 µM (inactive) |  | CN(C)S(=O)(=O)c1cccc(NC(=S)NCCN2CCCC2)c1 |
|  | 93 µM | CN(C)S(=O)(=O)c1cccc(NC(=S)NCCC(c2ccccc2)c2ccccc2)c1 |
|  | 26.3 µM | CCN(CC)S(=O)(=O)c1ccc(NC(=S)NC(c2ccccc2)c2ccccc2)cc1 |
|  | 38.6 µM | O=S(=O)(c1ccc(NC(=S)NCCC(c2ccccc2)c2ccccc2)cc1)N1CCCCC1 |
| > 100 µM (inactive) |  | CN(C)CC(C)(C)CNC(=S)Nc1cccc(S(=O)(=O)N(C)C)c1 |
|  | 73 µM | CN(C)S(=O)(=O)c1cccc(NC(=S)NCCc2cccc(Br)c2)c1 |
|  | 31.2 µM | CN(C)S(=O)(=O)c1cccc(NC(=S)NC(c2ccccc2)c2ccccc2)c1 |
|  | 86.6 µM | CN(C)S(=O)(=O)c1cccc(NC(=S)NCCc2ccccc2)c1 |
|  | 78.5 µM | Cc1ccc(S(=O)(=O)N(C)C)cc1NC(=S)NC(C)CCC(C)C (stereo unspecified) |
|  | 66.1 µM | Cc1ccc(S(=O)(=O)N(C)C)cc1NC(=S)NC(C)CCCC(C)C (stereo unspecified) |
|  | 52.5 µM | CCN(CC)S(=O)(=O)c1ccc(NC(=S)NCCC(c2ccccc2)c2ccccc2)cc1 |
| > 100 µM (inactive) |  | CN(C)S(=O)(=O)c1cccc(NC(=S)NCCCn2ccnc2)c1 |
|  | 78.6 µM | COc1cccc(CCNC(=S)Nc2cccc(S(=O)(=O)N(C)C)c2)c1 |
| > 100 µM (inactive) |  | CN(C)S(=O)(=O)c1ccc(NC(=S)NCCc2ccccc2)cc1 |
| > 100 µM (inactive) |  | Cc1ccc(S(=O)(=O)N(C)C)cc1NC(=S)NCCCn1ccnc1 |
|  | 69.2 µM | CC(CCc1ccccc1)NC(=S)Nc1cccc(S(=O)(=O)N(C)C)c1 (stereo unspecified) |
|  | 84.9 µM | O=S(=O)(c1ccc(NC(=S)NCc2cccc(Cl)c2)cc1)N1CCCCC1 |
|  | 82.8 µM | Cc1ccc(CNC(=S)Nc2cccc(S(=O)(=O)N(C)C)c2)cc1 |
|  | 78.1 µM | O=S(=O)(c1ccc(NC(=S)NCc2cccc(F)c2)cc1)N1CCCCC1 |
